Data as given in ChEMBL document CHEMBL4028802, “DILIrank: the largest reference drug list ranked by the risk for developing drug-induced liver injury in humans” (Drug Discov Today, 2016).

Tests used:
Homo sapiens [1] = species on record: Homo sapiens; assay: Liver toxicity in human assessed as induction of drug-induced liver injury by measuring severity class index
Homo sapiens [2] = species on record: Homo sapiens; assay: Liver toxicity in human assessed as induction of drug-induced liver injury by measuring verified drug-induced liver injury concern status
Throughout, for DILI severity class: key of the grades not given here.

Row | SMILES | DILI_severity_class (Homo sapiens [1]) | DILI_Concern (Homo sapiens [2])
1 | CC(C)NCC(O)COc1cccc2ccccc12 (centres undefined) [PROPRANOLOL] | 3 | Ambiguous-Dili-Concern
2 | CCCc1cc(=O)[nH]c(=S)[nH]1 [PROPYLTHIOURACIL] | 8 | Most-Dili-Concern
3 | NC(=O)[C@@H]1CCCN1C(=O)[C@H](Cc1cnc[nH]1)NC(=O)[C@@H]1CCC(=O)N1 [PROTIRELIN] | 0 | No-Dili-Concern
4 | CNCCCC1c2ccccc2C=Cc2ccccc21 [PROTRIPTYLINE] | 0 | No-Dili-Concern
5 | CN[C@@H](C)[C@@H](O)c1ccccc1 [PSEUDOEPHEDRINE] | 0 | No-Dili-Concern
6 | NC(=O)c1cnccn1 [PYRAZINAMIDE] | 3 | Less-Dili-Concern
7 | CN(C)C(=O)Oc1ccc[n+](C)c1 [PYRIDOSTIGMINE] | 0 | No-Dili-Concern
8 | Cc1ncc(CO)c(CO)c1O [PYRIDOXINE] | 0 | No-Dili-Concern
9 | CCc1nc(N)nc(N)c1-c1ccc(Cl)cc1 [PYRIMETHAMINE] | 3 | Less-Dili-Concern
10 | Fc1ccccc1C1=NCC(=S)N(CC(F)(F)F)c2ccc(Cl)cc21 [QUAZEPAM] | 0 | No-Dili-Concern
11 | OCCOCCN1CCN(C2=Nc3ccccc3Sc3ccccc32)CC1 [QUETIAPINE] | 3 | Less-Dili-Concern
12 | C=C[C@H]1C[N@@]2CC[C@H]1C[C@@H]2[C@@H](O)c1ccnc2ccc(OC)cc12 [QUINIDINE] | 3 | Less-Dili-Concern
13 | C=C[C@H]1C[N@@]2CC[C@H]1C[C@H]2[C@H](O)c1ccnc2ccc(OC)cc12 [QUININE] | 3 | Less-Dili-Concern
14 | COCCCOc1ccnc(C[S+]([O-])c2nc3ccccc3[nH]2)c1C (centres undefined) [RABEPRAZOLE] | 3 | Less-Dili-Concern
15 | O=C(c1ccc(OCCN2CCCCC2)cc1)c1c(-c2ccc(O)cc2)sc2cc(O)ccc12 [RALOXIFENE] | 0 | No-Dili-Concern
16 | CCC(=O)NCC[C@@H]1CCc2ccc3c(c21)CCO3 [RAMELTEON] | 0 | No-Dili-Concern
17 | CNC(=C[N+](=O)[O-])NCCSCc1ccc(CN(C)C)o1 [RANITIDINE] | 5 | Less-Dili-Concern
18 | COc1ccccc1OCC(O)CN1CCN(CC(=O)Nc2c(C)cccc2C)CC1 (centres undefined) [RANOLAZINE] | 0 | No-Dili-Concern
19 | C#CCN[C@@H]1CCc2ccccc21 [RASAGILINE] | 3 | Ambiguous-Dili-Concern

Row | SMILES | DILI_severity_class (Homo sapiens [1]) | DILI_Concern (Homo sapiens [2])
20 | CNC(=O)c1cnn(-c2nc(N)c3ncn([C@@H]4O[C@H](CO)[C@@H](O)[C@H]4O)c3n2)c1 [REGADENOSON ANHYDROUS] | 0 | No-Dili-Concern
21 | CCOc1cc(CC(=O)N[C@@H](CC(C)C)c2ccccc2N2CCCCC2)ccc1C(=O)O [REPAGLINIDE] | 5 | Less-Dili-Concern
22 | COC(=O)[C@H]1[C@H]2C[C@@H]3c4[nH]c5cc(OC)ccc5c4CCN3C[C@H]2C[C@@H](OC(=O)c2cc(OC)c(OC)c(OC)c2)[C@@H]1OC [RESERPINE] | 0 | No-Dili-Concern
23 | CC1=C(/C=C/C(C)=C/C=C/C(C)=C/CO)C(C)(C)CCC1 [RETINOL] | 3 | Less-Dili-Concern
24 | NC(=O)c1ncn([C@@H]2O[C@H](CO)[C@@H](O)[C@H]2O)n1 [RIBAVIRIN] | 7 | Ambiguous-Dili-Concern
25 | Cc1cc2nc3c(=O)[nH]c(=O)nc-3n(C[C@H](O)[C@H](O)[C@H](O)CO)c2cc1C [RIBOFLAVIN] | 0 | No-Dili-Concern
26 | CO[C@H]1/C=C/O[C@@]2(C)Oc3c(C)c(O)c4c(c3C2=O)C2=NC3(CCN(CC(C)C)CC3)NC2=C(NC(=O)/C(C)=C\C=C\[C@H](C)[C@H](O)[C@@H](C)[C@@H](O)[C@@H](C)[C@H](OC(C)=O)[C@@H]1C)C4=O [RIFABUTIN] | 5 | Less-Dili-Concern
27 | CO[C@H]1/C=C/O[C@@]2(C)Oc3c(C)c(O)c4c(O)c(c(/C=N/N5CCN(C)CC5)c(O)c4c3C2=O)NC(=O)/C(C)=C\C=C\[C@H](C)[C@H](O)[C@@H](C)[C@@H](O)[C@@H](C)[C@H](OC(C)=O)[C@@H]1C [RIFAMPIN] | 8 | Most-Dili-Concern
28 | CO[C@H]1/C=C/O[C@@]2(C)Oc3c(C)c(O)c4c(O)c(c(/C=N/N5CCN(C6CCCC6)CC5)c(O)c4c3C2=O)NC(=O)/C(C)=C\C=C\[C@H](C)[C@H](O)[C@@H](C)[C@@H](O)[C@@H](C)[C@H](OC(C)=O)[C@@H]1C [RIFAPENTINE] | 4 | Ambiguous-Dili-Concern
29 | CO[C@H]1/C=C/O[C@@]2(C)Oc3c(C)c(O)c4c(O)c(c5c(nc6cc(C)ccn65)c4c3C2=O)NC(=O)/C(C)=C\C=C\[C@H](C)[C@H](O)[C@@H](C)[C@@H](O)[C@@H](C)[C@H](OC(C)=O)[C@@H]1C [RIFAXIMIN] | 7 | Ambiguous-Dili-Concern
30 | Nc1nc2ccc(OC(F)(F)F)cc2s1 [RILUZOLE] | 8 | Most-Dili-Concern
31 | CC(N)C12CC3CC(CC(C3)C1)C2 (centres undefined) [RIMANTADINE] | 0 | No-Dili-Concern
32 | O=P(O)(O)C(O)(Cc1cccnc1)P(=O)(O)O [RISEDRONIC ACID] | 3 | Ambiguous-Dili-Concern
33 | Cc1nc2n(c(=O)c1CCN1CCC(c3noc4cc(F)ccc34)CC1)CCCC2 [RISPERIDONE] | 3 | Less-Dili-Concern
34 | CC(C)c1nc(CN(C)C(=O)N[C@H](C(=O)N[C@@H](Cc2ccccc2)C[C@H](O)[C@H](Cc2ccccc2)NC(=O)OCc2cncs2)C(C)C)cs1 [RITONAVIR] | 8 | Most-Dili-Concern
35 | CCN(C)C(=O)Oc1cccc([C@H](C)N(C)C)c1 [RIVASTIGMINE] | 3 | Less-Dili-Concern
36 | CN(C)CCc1c[nH]c2ccc(Cn3cncn3)cc12 [RIZATRIPTAN] | 0 | No-Dili-Concern
37 | CCCN(CCC)CCc1cccc2c1CC(=O)N2 [ROPINIROLE] | 4 | Less-Dili-Concern
38 | CN(CCOc1ccc(CC2SC(=O)NC2=O)cc1)c1ccccn1 (centres undefined) [ROSIGLITAZONE] | 3 | Less-Dili-Concern

Row | SMILES | DILI_severity_class (Homo sapiens [1]) | DILI_Concern (Homo sapiens [2])
39 | CC(C)c1nc(N(C)S(C)(=O)=O)nc(-c2ccc(F)cc2)c1/C=C/[C@@H](O)C[C@@H](O)CC(=O)O [ROSUVASTATIN] | 3 | Less-Dili-Concern
40 | [82Rb+].[Cl-] [RUBIDIUM CHLORIDE RB 82] | 0 | No-Dili-Concern
41 | NC(=O)c1cn(Cc2c(F)cccc2F)nn1 [RUFINAMIDE] | 3 | Ambiguous-Dili-Concern
42 | O=C(Oc1ccccc1C(=O)O)c1ccccc1O [SALSALATE] | 3 | Less-Dili-Concern
43 | N#C[C@@H]1C[C@@H]2C[C@@H]2N1C(=O)[C@@H](N)C12CC3CC(CC(O)(C3)C1)C2 [SAXAGLIPTIN ANHYDROUS] | 0 | No-Dili-Concern
44 | CN1[C@@H]2C[C@@H](OC(=O)[C@H](CO)c3ccccc3)C[C@H]1[C@@H]1O[C@@H]12 [SCOPOLAMINE] | 0 | No-Dili-Concern
45 | C=CCC1(C(C)CCC)C(=O)NC(=O)NC1=O (centres undefined) [SECOBARBITAL] | 3 | Ambiguous-Dili-Concern
46 | C#CCN(C)[C@H](C)Cc1ccccc1 [SELEGILINE] | 0 | No-Dili-Concern
47 | CN[C@H]1CC[C@@H](c2ccc(Cl)c(Cl)c2)c2ccccc21 [SERTRALINE] | 3 | Less-Dili-Concern
48 | CC(C)CC(N(C)C)C1(c2ccc(Cl)cc2)CCC1 (centres undefined) [SIBUTRAMINE] | 4 | Less-Dili-Concern
49 | C[C@H](Cc1cc2c(c(C(N)=O)c1)N(CCCO)CC2)NCCOc1ccccc1OCC(F)(F)F [SILODOSIN] | 3 | Ambiguous-Dili-Concern
50 | CSCC[C@H](NC(=O)[C@H](Cc1ccc(OS(=O)(=O)O)cc1)NC(=O)[C@@H](N)CC(=O)O)C(=O)NCC(=O)N[C@@H](Cc1c[nH]c2ccccc12)C(=O)N[C@@H](CCSC)C(=O)N[C@@H](CC(=O)O)C(=O)N[C@@H](Cc1ccccc1)C(N)=O [SINCALIDE] | 0 | No-Dili-Concern
51 | CO[C@H]1C[C@@H]2CC[C@@H](C)[C@@](O)(O2)C(=O)C(=O)N2CCCC[C@H]2C(=O)O[C@H]([C@H](C)C[C@@H]2CC[C@@H](O)[C@H](OC)C2)CC(=O)[C@H](C)/C=C(\C)[C@@H](O)[C@@H](OC)C(=O)[C@H](C)C[C@H](C)/C=C/C=C/C=C/1C [SIROLIMUS] | 8 | Less-Dili-Concern
52 | N[C@@H](CC(=O)N1CCn2c(nnc2C(F)(F)F)C1)Cc1cc(F)c(F)cc1F [SITAGLIPTIN] | 4 | Less-Dili-Concern
53 | Cc1cc2c(cc1CC(=O)c1sccc1S(=O)(=O)Nc1onc(C)c1Cl)OCO2 [SITAXENTAN] | 8 | Most-Dili-Concern
54 | O=C([O-])O.[Na+] [SODIUM BICARBONATE] | 0 | No-Dili-Concern
55 | CC(O)C(=O)[O-].[Na+] (centres undefined) [SODIUM LACTATE] | 0 | No-Dili-Concern
56 | O=C(O[C@H]1CN2CCC1CC2)N1CCc2ccccc2[C@@H]1c1ccccc1 [SOLIFENACIN] | 3 | Ambiguous-Dili-Concern
57 | CNC(=O)c1cc(Oc2ccc(NC(=O)Nc3ccc(Cl)c(C(F)(F)F)c3)cc2)ccn1 [SORAFENIB] | 8 | Most-Dili-Concern
